Source: PMC10350924, “Design, Synthesis, and Pharmacological Characterization of a Potent Soluble Epoxide Hydrolase Inhibitor for the Treatment of Acute Pancreatitis” (Journal of Medicinal Chemistry, 2023)
Where “and” joins values, the source holds several entries; their conditions need not be identical. Equal entries are not always repeated.

Tests used:
[1] = Chemical stability in phosphate buffer pH 7.4; assay type: physicochemical; details: 5 μM
Text: The chemical and metabolic stabilities of compounds 6, 27, 28, 30, and 36 were monitored using a UHPLC system (Shimadzu, Kyoto, Japan) consisting of a CBM-40 Lite controller, two LC-40B X3 solvent delivery modules, an SPD-M40 photodiode array detector, a CTO-30A column oven and, a SIL-40AC X3 autosampler. The UHPLC system was coupled online to LCMS-2020 single quadrupole mass spectrometer (Shimadzu, Kyoto, Japan) equipped with an electrospray ionization (ESI) source operating in positive mode.
The chromatographic separation was accomplished on a Luna Omega 1.6 μm Polar C18 100 Å, 100 mm × 2.1 mm (Phenomenex, Bologna, Italy) maintained at 40 °C. The optimal mobile phase consisted of 0.1% HCOOH/H2O v/v (A) and 0.1% HCOOH/ACN v/v (B) delivered at a constant flow rate of 0.3 mL min^–1. Analysis was performed in gradient elution as follows: 0–8.00 min, 30–95% B; 8.00–10.00 min, isocratic to 95% B, then 5 min for column re-equilibration.
The ESI was operated in positive mode, with the following parameters: interface temperature, 350 °C; interface voltage, 4.5 kV; DL (desolvation line) temperature, 250 °C; block heater temperature, 200 °C; nebulizing gas flow (N2), 1.5 L min^–1; drying gas pressure, 15 L min^–1. Quantification was performed in SIM (single-ion monitoring) mode.
For the calibration curves, the primary stock solutions (10 mM) of compounds 6, 27, 28, 30, and 36 were prepared in DMSO. The working standard solutions were prepared by serial dilution of the stock solutions in methanol to obtain necessary concentrations (0.25–10 μM). A solution containing an internal standard (IS: tolbutamide) was prepared at 10 μM in methanol. Quantitation of compounds 6, 27, 28, 30, and 36 was performed using linear regression of the response ratios obtained from the calibration curve to calculate the corresponding amount (6: y = 1.97175x + 0.53508, R^2 = 0.9998; 27: y = 2.90980x + 0.03831, R^2 = 0.9993; 28: y = 2.05962x + 0.02242, R^2 = 0.9994; 30: y = 1.98080x + 0.14962, R^2 = 0.9997; 36: y = 4.59526x – 0.13459, R^2 = 0.9991).
1.25 μL of test compounds (5 μM final incubation concentration) was incubated in 200 μL of phosphate buffer at pH 7.4. At each specified time point (0, 0.5, 1, 1.5, and 2 h), the analyte was removed into 200 μL of ice-cold methanol containing internal standard (tolbutamide) to stop degradation. Finally, the concentration of the test compound was quantified by LC-MS. The percentage of compound remaining (relative to the 0 min time point) at the individual time points is then reported. All experiments were performed in triplicate.

[2] = molecular target: T1, 5-LOX (Homo sapiens, UniProt P09917); assay: 5-LOX product formation in human activated PMNL (A23187); assay type: cell-based; design: Freshly isolated PMNL (5 × 10^6) suspended in PBS pH 7.4 with 1 mg/mL glucose were preincubated with the test compounds; endogenous in cells; host or cells: human PMNL from donor blood; remaining activity: dose or concentration left out as unconfirmed; details: for remaining activity at 10 µM: read-out: 5-LOX residual activity in PMNL (%) at 10 μM; for remaining activity: PMNL, read-out: 5-LO residual activity in PMNL (%)
T1 sequence (P09917 1-674): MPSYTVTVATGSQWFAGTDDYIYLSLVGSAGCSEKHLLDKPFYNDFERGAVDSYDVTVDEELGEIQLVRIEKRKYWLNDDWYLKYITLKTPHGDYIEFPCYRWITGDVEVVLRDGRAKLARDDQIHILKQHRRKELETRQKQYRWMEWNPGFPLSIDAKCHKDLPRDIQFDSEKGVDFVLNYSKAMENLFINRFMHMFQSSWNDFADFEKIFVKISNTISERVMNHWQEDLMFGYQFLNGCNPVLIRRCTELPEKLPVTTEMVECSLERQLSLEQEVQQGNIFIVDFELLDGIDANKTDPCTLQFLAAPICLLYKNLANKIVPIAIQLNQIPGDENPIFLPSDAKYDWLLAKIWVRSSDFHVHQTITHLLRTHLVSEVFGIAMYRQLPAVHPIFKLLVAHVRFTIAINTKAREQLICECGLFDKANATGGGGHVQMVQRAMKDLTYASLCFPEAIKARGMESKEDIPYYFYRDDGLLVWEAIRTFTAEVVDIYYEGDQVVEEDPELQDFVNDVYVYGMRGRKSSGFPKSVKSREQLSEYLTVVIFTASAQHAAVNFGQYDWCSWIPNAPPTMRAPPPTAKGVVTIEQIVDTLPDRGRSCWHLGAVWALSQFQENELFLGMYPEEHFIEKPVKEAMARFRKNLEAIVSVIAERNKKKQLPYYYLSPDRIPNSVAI
Description: Human PMNL were freshly isolated from leukocyte concentrates that were obtained from the Institute for Transfusion Medicine of the University Hospital Jena (Germany). […] These volunteers regularly donated blood (every 8–12 weeks) and were physically inspected by a clinician. […] Leukocytes were concentrated by centrifugation (4000g/20 min/20 °C) of freshly withdrawn blood. […] PMNL were obtained from the cell pellet. […] The reaction was stopped with an equal volume of methanol containing PGB1 (200 ng) as internal standard. Major 5-LOX products (all-trans isomers of LTB and 5-HETE, and additionally LTB4) were extracted and analyzed by RP-HPLC as described for the determination of cell-free 5-LOX activity.

[3] = 0.5 h, compound remaining relative to 0 min

| Structure (SMILES) | chemical stability in phosphate buffer (pH 7.4) [1, 3] | chemical stability in phosphate buffer (pH 7.4) ([1]; 1.0 h) | chemical stability in phosphate buffer (pH 7.4) ([1]; 1.5 h) | chemical stability in phosphate buffer (pH 7.4) ([1]; 2.0 h) | remaining activity at 10 µM ([2]; human activated PMNL) | remaining activity [2] | IC50 ([2]; human activated PMNL) |
| --- | --- | --- | --- | --- | --- | --- | --- |
| O=C(Nc1ccc2c(c1)CCN2Cc1ccc(F)cc1)NC12C[C@H]3C[C@@H](C1)C[C@@H](C2)C3 [Compound 6, 1-((3S,5S,7S)-Adamantan-1-yl)-3-(1-(4-fluorobenzyl)indolin-5-yl)urea] | 97.9 ± 3.5% | 100.7 ± 4.3% | 100.5 ± 3.5% | 102.4 ± 0.1% | 35.4 ± 3.1% | 35.4 ± 3.1% | 240 nM and 243 nM |
| O=C(NCC12C[C@H]3C[C@@H](C1)C[C@@H](C2)C3)Nc1ccc2c(ccn2Cc2ccc(F)cc2)c1 [Compound 27, 1-(((3R,5R,7R)-Adamantan-1-yl)methyl)-3-(1-(4-fluorobenzyl)-1H-indol-5-yl)urea] | 99.2 ± 1.7% | 95.5 ± 4.5% | 98.9 ± 0.2% | 96.4 ± 0.5% | 59.4 ± 6.7% | 59.4 ± 6.7% | – |
| CC(C)c1ccc(Cn2ccc3cc(NC(=O)NCC45C[C@H]6C[C@@H](C4)C[C@@H](C5)C6)ccc32)cc1 [Compound 28, 1-(((3R,5R,7R)-Adamantan-1-yl)methyl)-3-(1-(4-isopropylbenzyl)-1H-indol-5-yl)urea] | 102.0 ± 2.7% | 101.7 ± 1.9% | 99.7 ± 2.3% | 102.4 ± 1.8% | 93.6 ± 4.8% | 93.6 ± 4.8% | – |

More lines, now with the values ahead:

| chemical stability in phosphate buffer (pH 7.4) [1, 3] | chemical stability in phosphate buffer (pH 7.4) ([1]; 1.0 h) | chemical stability in phosphate buffer (pH 7.4) ([1]; 1.5 h) | chemical stability in phosphate buffer (pH 7.4) ([1]; 2.0 h) | remaining activity at 10 µM ([2]; human activated PMNL) | remaining activity [2] | IC50 ([2]; human activated PMNL) | Structure (SMILES) |
| --- | --- | --- | --- | --- | --- | --- | --- |
| 102.5 ± 1.1% | 100.3 ± 1.9% | 99.6 ± 0.2% | 102.4 ± 3.5% | 65.1 ± 6.2% | 65.1 ± 6.2% | – | O=C(NCC12C[C@H]3C[C@@H](C1)C[C@@H](C2)C3)Nc1ccc2c(ccn2CCc2ccc(F)cc2)c1 [Compound 30, 1-(((3R,5R,7R)-Adamantan-1-yl)methyl)-3-(1-(4-fluorophenethyl)-1H-indol-5-yl)urea] |
| 96.3 ± 3.2% | 95.2 ± 1.8% | 99.8 ± 2.1% | 92.4 ± 2.0% | 58.1 ± 5.5% | 58.1 ± 5.5% | – | O=C(NCC12C[C@H]3C[C@@H](C1)C[C@@H](C2)C3)Nc1ccc2c(ccn2C(=O)c2ccc(F)cc2)c1 [Compound 36, 1-(((3R,5R,7R)-Adamantan-1-yl)methyl)-3-(1-(4-fluorobenzoyl)-1H-indol-5-yl)urea] |
